Measurements taken from the NIST ThermoML archive (doi:10.1021/je050378i).

Assay: wn = mass fraction of the nth substance listed
Settings: 101.33 kPa, Liquid

CC(C)(N)CO [2-amino-2-methylpropan-1-ol] + O
w1 = 0.3
Settings	mass density [kg/m3]	viscosity [mPa·s]
298 K	997	3.637
303 K	994.2	2.964
308 K	991.4	2.446
313 K	988.4	2.043
318 K	985.4	1.696
323 K	982.1	1.425
328 K	978.8	1.237
333 K	975.5	1.081

C1CNCCN1 [piperazine] + O
Settings	mass density, w1 = 0.0174 [kg/m3]	mass density, w1 = 0.0345 [kg/m3]	mass density, w1 = 0.0516 [kg/m3]	mass density, w1 = 0.0688 [kg/m3]	viscosity, w1 = 0.0174 [mPa·s]	viscosity, w1 = 0.0344 [mPa·s]	viscosity, w1 = 0.0516 [mPa·s]	viscosity, w1 = 0.0688 [mPa·s]
298 K	997.8	998.5	999.4	1000.6	0.957	1.021	1.09	1.169
303 K	996.5	997.2	998.1	999	0.861	0.915	0.965	1.035
308 K	995.1	995.7	996.5	997.6	0.776	0.805	0.865	0.91
313 K	993.2	994.1	994.7	995.6	0.681	0.718	0.763	0.821
318 K	991.4	992.2	992.5	993.8	0.623	0.652	0.703	0.731
323 K	989.3	990.2	990.4	991.4	0.573	0.592	0.624	0.663
328 K	986.7	987.4	988	989.1	0.543	0.543	0.569	0.604
333 K	984.2	984.5	985.7	987.4	0.488	0.505	0.523	0.546
